Test results reported in patent US20140364431A1, “Quinoline and cinnoline derivatives and their applications” (Shenyang Pharmaceutical University, priority 2011, published 2014).
Values after ≈ are worked out from the molar mass of the structure shown. Read-outs that look alike come from different tables or passages of the source.

Legend:
[1] = system: SMMC-7721 (hepatoma cell); experiment: In vitro anti-tumor cellular activity (MTT), SMMC-7721; assay type: cell-based, human; conditions: for IC50: Homo sapiens, read-out: SMMC-7721 IC50
[2] = system: U87MG (Human malignant glioblastoma cells); experiment: In vitro anti-tumor cellular activity (MTT), U87MG; assay type: cell-based; conditions: for IC50: Homo sapiens, U-87 MG, read-out: U87MG IC50
[3] = system: MKN-45 (human gastric carcinoma cell); experiment: In vitro anti-tumor cellular activity (MTT), MKN-45; assay type: cell-based; conditions: for IC50: Homo sapiens, read-out: MKN-45 IC50
[4] = target: T1, c-Met (His-tagged recombinant human Met (Amino acids 974-ends)) (Homo sapiens, UniProt P08581); experiment: c-Met kinase assay (ELISA); assay type: biochemical; conditions: 50 pM c-Met, 5 μM ATP, 20 min
T1 construct: His-tagged recombinant human Met (Amino acids 974-ends); His; host or cells: baculovirus expression
T1 sequence (P08581 974-1390 limits assumed): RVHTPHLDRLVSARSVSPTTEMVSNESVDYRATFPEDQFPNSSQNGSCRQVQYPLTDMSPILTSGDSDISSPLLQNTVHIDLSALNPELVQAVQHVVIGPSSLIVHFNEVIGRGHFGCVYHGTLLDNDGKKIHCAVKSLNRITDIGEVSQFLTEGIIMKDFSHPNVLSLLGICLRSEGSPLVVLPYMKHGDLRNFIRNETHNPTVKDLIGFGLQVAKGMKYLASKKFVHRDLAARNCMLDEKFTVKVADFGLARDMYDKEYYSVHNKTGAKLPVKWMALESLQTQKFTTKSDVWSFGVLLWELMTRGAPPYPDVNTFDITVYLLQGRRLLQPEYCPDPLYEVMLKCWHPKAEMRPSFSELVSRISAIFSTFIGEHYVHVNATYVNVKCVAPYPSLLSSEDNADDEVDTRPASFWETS
Procedure: c-Met kinase activity was measured with an ELISA reader.
The reaction mixture was removed by washing with 0.2 μg/mL conjugated horseradish peroxidase (HRP) monoclonal antibody specific for phosphotyrosine (PY20) detecting phosphorylation of the substrate polymer. 1M phosphoric acid was added to terminate the color, the chromogenic substrate (TMB) was tested by spectrophotometry at 450 nm.

[5] = system: HT-29 (colon cancer cell); experiment: In vitro anti-tumor cellular activity (MTT), HT-29; assay type: cell-based, human; conditions: for IC50: Homo sapiens, read-out: HT-29 IC50
[6] = system: H460 (human lung cancer cell); experiment: In vitro anti-tumor cellular activity (MTT), H460; assay type: cell-based; conditions: for IC50: Homo sapiens, read-out: H460 IC50
[7] = system: human tumor cell lines (such as human lung cancer cells, human gastric cancer cells, etc.); conditions: cited from earlier work

IC50 ([1]; MTT, 72 hours, SMMC-7721) [µg/mL] | IC50 ([2]; MTT, 72 hours, U87MG) [µg/mL] | IC50 ([3]; MTT, 72 hours, MKN-45) [µg/mL] | IC50 [4] [nM] | IC50 ([5]; MTT, 72 hours, HT-29) [µg/mL] | IC50 ([6]; NCI-H460, MTT, 72 hours, H460) [µg/mL] | Compound | SMMC-7721 IC50 ([1]; MTT, 72 hours, SMMC-7721) [µg/mL] | U87MG IC50 ([2]; MTT, 72 hours, U87MG) [µg/mL] | MKN-45 IC50 ([3]; MTT, 72 hours, MKN-45) [µg/mL] | c-Met IC50 [4] [µg/mL] | HT-29 IC50 ([5]; MTT, 72 hours, HT-29) [µg/mL] | H460 IC50 ([6]; MTT, 72 hours, H460) [µg/mL] | also measured
0.29 (≈ 0.41 µM) | 0.21 (≈ 0.297 µM) | 0.47 (≈ 0.665 µM) | 707 | 0.93 (≈ 1.32 µM) | 0.79 (≈ 1.12 µM) | COc1cc2c(Oc3ccc(NC(=O)c4cn(-c5ccccc5Cl)c5ccccc5c4=O)cc3F)ccnc2cc1OCCCN1CCCCC1 [Example 53, N-(3-fluoro-4-((6-methoxy-7-(3-(piperidin-1-yl)propoxy)quinolin-4-yl)oxy)phenyl)-1-(2-chlorophenyl)-4-oxo-1,4-dihydroquinoline-3-carboxamide] | – | – | – | – | – | – | –
0.52 (≈ 0.721 µM) | 0.14 (≈ 0.194 µM) | 0.49 (≈ 0.679 µM) | 971 | 0.63 (≈ 0.874 µM) | 0.63 (≈ 0.874 µM) | COc1cc2c(Oc3ccc(NC(=O)c4cn(-c5ccccc5Cl)c5ccccc5c4=O)cc3F)ccnc2cc1OCCCN1CCC(C)CC1 [Example 54, N-(3-fluoro-4-((6-methoxy-7-(3-(4-methylpiperidin-1-yl)propoxy)quinolin-4-yl)oxy)phenyl)-1-(2-chlorophenyl)-4-oxo-1,4-dihydroquinoline-3-carboxamide] | – | – | – | – | – | – | –
0.74 (≈ 1.02 µM) | 0.12 (≈ 0.166 µM) | 0.21 (≈ 0.291 µM) | 138 | 0.2 (≈ 0.277 µM) | 0.75 (≈ 1.04 µM) | COc1cc2c(Oc3ccc(NC(=O)c4cn(-c5ccccc5Cl)c5ccccc5c4=O)cc3F)ccnc2cc1OCCCN1CCN(C)CC1 [Example 56, N-(3-fluoro-4-((6-methoxy-7-(3-(4-methylpiperazin-1-yl)propoxy)quinolin-4-yl)oxy)phenyl)-1-(2-chlorophenyl)-4-oxo-1,4-dihydroquinoline-3-carboxamide] | – | – | – | – | – | – | –
0.58 (≈ 0.768 µM) | 1.1 (≈ 1.46 µM) | 0.91 (≈ 1.21 µM) | 1060 | 0.87 (≈ 1.15 µM) | 1.3 (≈ 1.72 µM) | COc1cc2c(Oc3ccc(NC(=O)c4cn(-c5ccccc5C(F)(F)F)c5ccccc5c4=O)cc3F)ccnc2cc1OCCCN1CCC(C)CC1 [Example 57, N-(3-fluoro-4-((6-methoxy-7-(3-(4-methylpiperidin-1-yl)propoxy)quinolin-4-yl)oxy)phenyl)-4-oxo-1-(2-(trifluoromethyl)phenyl)-1,4-dihydroquinoline-3-carboxamide] | – | – | – | – | – | – | –
1.7 (≈ 2.39 µM) | 2.1 (≈ 2.95 µM) | 2.4 (≈ 3.37 µM) | 562 | 1.4 (≈ 1.97 µM) | 0.89 (≈ 1.25 µM) | COc1cc2c(Oc3ccc(NC(=O)c4nn(-c5ccc(Cl)cc5)c5ccccc5c4=O)cc3F)cnnc2cc1OCCCN1CCOCC1 [Example 66, N-(3-fluoro-4-((6-methoxy-7-(3-(morpholin-4-yl)propoxy)cinnolin-4-yl)oxy)phenyl)-1-(4-chlorophenyl)-4-oxo-1,4-dihydrocinnoline-3-carboxamide] | – | – | – | – | – | – | –
1.6 (≈ 2.21 µM) | 1.7 (≈ 2.35 µM) | 2.2 (≈ 3.04 µM) | 1520 | 0.96 (≈ 1.33 µM) | 2.5 (≈ 3.46 µM) | COc1cc2c(Oc3ccc(NC(=O)c4nn(-c5ccc(Cl)cc5)c5ccccc5c4=O)cc3F)cnnc2cc1OCCCN1CCC(C)CC1 [Example 67, N-(3-fluoro-4-((6-methoxy-7-(3-(4-methylpiperidin-1-yl)propoxy)cinnolin-4-yl)oxy)phenyl)-1-(4-chlorophenyl)-4-oxo-1,4-dihydrocinnoline-3-carboxamide] | – | – | – | – | – | – | –
2.9 (≈ 3.75 µM) | 1.3 (≈ 1.68 µM) | 2.5 (≈ 3.23 µM) | 1160 | 2.1 (≈ 2.71 µM) | 1.5 (≈ 1.94 µM) | COc1cc2c(Oc3ccc(NC(=O)c4nn(-c5ccc(Br)cc5F)c5ccccc5c4=O)cc3F)cnnc2cc1OCCCN1CCOCC1 [Example 68, N-(3-fluoro-4-((6-methoxy-7-(3-(morpholin-4-yl)propoxy)cinnolin-4-yl)oxy)phenyl)-1-(4-bromo-2-fluorophenyl)-4-oxo-1,4-dihydrocinnoline-3-carboxamide] | – | – | – | – | – | – | –
1.3 (≈ 1.84 µM) | 1.8 (≈ 2.54 µM) | 2.6 (≈ 3.67 µM) | 1550 | 2.1 (≈ 2.97 µM) | 2.3 (≈ 3.25 µM) | COc1cc2c(Oc3ccc(NC(=O)c4nn(-c5ccc(F)cc5)c5ccccc5c4=O)cc3F)cnnc2cc1OCCCN1CCN(C)CC1 [Example 69, N-(3-fluoro-4-((6-methoxy-7-(3-(4-methylpiperazin-1-yl)propoxy)cinnolin-4-yl)oxy)phenyl)-1-(4-fluorophenyl)-4-oxo-1,4-dihydrocinnoline-3-carboxamide] | – | – | – | – | – | – | –
– | – | – | – | – | – | COc1cc2c(Oc3ccc(NC(=O)C4(C(=O)Nc5ccc(F)cc5)CC4)cc3F)ccnc2cc1OCCCN1CCOCC1 [Foretinib] | – | – | – | – | – | – | IC50 against a variety of human tumor cell lines [7]: 4 ng/mL
– | – | – | – | – | – | N-(3-fluoro-4-((6-methoxy-7-(3-(4-methylpiperazin-1-yl)propoxy)quinolin-4-yl)oxy)phenyl)-1-(2-(trifluoromethyl)phenyl)-4-oxo-1,4-dihydrocinnoline-3-carboxamide [Example 44] | 2.1 | 0.84 | 1.8 | 1.1 | 1.2 | 1.6 | –
– | – | – | – | – | – | N-(3-fluoro-4-((6-methoxy-7-(3-(4-methylpiperazin-1-yl)propoxy)quinolin-4-yl)oxy)phenyl)-1-(2-chlorophenyl)-4-oxo-1,4-dihydrocinnoline-3-carboxamide dihydrochloride [Example 17] | 0.5 | 0.9 | 2.1 | 0.2 | 1.8 | 1.4 | –
– | – | – | – | – | – | N-(3-fluoro-4-((6-methoxy-7-(3-(4-methylpiperidin-1-yl)propoxy)quinolin-4-yl)oxy)phenyl)-1-(2-chlorophenyl)-4-oxo-1,4-dihydrocinnoline-3-carboxamide dihydrochloride [Example 15] | 1.5 | 0.2 | 0.8 | 0.66 | 0.6 | 1 | –
– | – | – | – | – | – | N-(3-fluoro-4-((6-methoxy-7-(3-(4-methylpiperidin-1-yl)propoxy)quinolin-4-yl)oxy)phenyl)-1-(3,4-difluorophenyl)-4-oxo-1,4-dihydroquinoline-3-carboxamide [Example 58] | 1.1 | 2.1 | 1.8 | 0.72 | 0.95 | 1.4 | –
– | – | – | – | – | – | N-(3-fluoro-4-((6-methoxy-7-(3-(piperidin-1-yl)propoxy)quinolin-4-yl)oxy)phenyl)-1-(2-fl uorophenyl)-4-oxo-1,4-dihydrocinnoline-3-carboxamide [Example 7] | 0.63 | 1.5 | 1.4 | 0.5 | 0.82 | 1.7 | –
– | – | – | – | – | – | N-(3-fluoro-4-((6-methoxy-7-(3-(piperidin-1-yl)propoxy)quinolin-4-yl)oxy)phenyl)-1-(4-fl uorophenyl)-4-oxo-1,4-dihydroquinoline-3-carboxamide dihydrochloride [Example 49] | 0.99 | 0.9 | 0.76 | 0.6 | 1.3 | 1.1 | –
– | – | – | – | – | – | N-(3-fluoro-4-((6-methoxy-7-(3-(pyrrolidin-1-yl)propoxy)quinolin-4-yl)oxy)phenyl)-1-(2-c hlorophenyl)-4-oxo-1,4-dihydrocinnoline-3-carboxamide dihydrochloride [Example 16] | 0.45 | 0.2 | 1.1 | 0.9 | 0.57 | 0.69 | –

Compound | IC50 ([1]; MTT, 72 hours, SMMC-7721) [µg/mL] | IC50 ([2]; MTT, 72 hours, U87MG) [µg/mL] | IC50 ([3]; MTT, 72 hours, MKN-45) [µg/mL] | IC50 [4] [nM] | IC50 ([5]; MTT, 72 hours, HT-29) [µg/mL] | IC50 ([6]; NCI-H460, MTT, 72 hours, H460) [µg/mL] | SMMC-7721 IC50 ([1]; MTT, 72 hours, SMMC-7721) [µg/mL] | U87MG IC50 ([2]; MTT, 72 hours, U87MG) [µg/mL] | MKN-45 IC50 ([3]; MTT, 72 hours, MKN-45) [µg/mL] | c-Met IC50 [4] [µg/mL] | HT-29 IC50 ([5]; MTT, 72 hours, HT-29) [µg/mL] | H460 IC50 ([6]; MTT, 72 hours, H460) [µg/mL] | also measured
COc1cc2c(Oc3ccc(NC(=O)c4cn(-c5ccccc5Cl)c5ccccc5c4=O)cc3F)ccnc2cc1OCCCN1CCCC1 [Example 55, N-(3-fluoro-4-((6-methoxy-7-(3-(pyrrolidin-1-yl)propoxy)quinolin-4-yl)oxy)phenyl)-1-(2-chlorophenyl)-4-oxo-1,4-dihydroquinoline-3-carboxamide] | – | – | – | 1300 | – | – | – | – | – | – | – | – | IC50 ([1]; SMMC-7721, 72 h): 0.53 µg/mL (≈ 0.765 µM); IC50 ([2]; 72 h): 0.18 µg/mL (≈ 0.26 µM); IC50 ([3]; MKN-45, 72 h): 0.29 µg/mL (≈ 0.418 µM); IC50 ([5]; HT-29, 72 h): 0.37 µg/mL (≈ 0.534 µM); IC50 ([6]; NCI-H460, 72 h): 0.74 µg/mL (≈ 1.07 µM)
